Source: patent US20160312311A1, “MARKERS FOR ISOCITRATE DEHYDROGENASE INHIBITORS” (NOVARTIS AG, priority 2013, published 2016)

What was measured:
Format in all cases: cell-based
[1] = tested on: SNU1079 cholangiocarcinoma cells (IDH1-R132C/WT), IDH2-R172K background; test: H3K9me2 Western blot in SNU1079 expressing IDH2-R172K; settings: doxycycline-induced IDH2-R172K, day 6
Procedure: (§1) As disclosed in Example 4, compound 162 is specific for IDH1 mutations. As such, it is a useful compound to determine the contribution of IDH2 to H3K9me2 methylation levels. SNU1079 cholangiocarcinoma cells (KCLB) contain an IDH1 mutation (IDH1-R132C/WT). These cells were cultured in RPMI-1640 (Life Technologies, Carlsbad, Calif.) supplemented with 1% Sodium Pyruvate and 10% Tet-free fetal bovine serum (Hyclone, Logan Utah). Full length IDH2 cDNAs (WT or R172K) were cloned into pLKO-TREX-neomycin for lentiviral transduction (Wee et al., Proc. Nat. Acad. Sci. U.S.A. 2008 105(35):13057-13062). Lentiviral particles were produced by co-transfecting the cDNA expression vector of interest with packaging plasmids Δ8.9 and VSVG into 293T cells (ATCC CRL-11268) using Transit293® transfection reagent (Mirus, Madison, Wis.). Lentiviral supernatants were then used to spin-infect SNU1079 cells in the presence of 8 μg/mL polybrene. Cells recovered overnight in fresh medium and were then selected and continually cultured in appropriate antibiotics.
(§2) SNU1079 stably expressing IDH2 isoforms were co-treated with doxycycline (100 ng/mL) final concentration to induce IDH2 (WT or R172K) expression. These lines were treated with DMSO or doses of compound 162. Cells were harvested on day 6 post-treatment and processed for histones as described above. […]

[2] = tested on: SNU1079 cholangiocarcinoma cells (IDH1-R132C/WT), IDH2-WT background; test: H3K9me2 Western blot in SNU1079 expressing IDH2 WT; settings: doxycycline-induced IDH2 WT, day 6
Procedure: as §1, §2

HT1080 and SNU1079 cells = test: Histone profiling by LC-MS/MS, compound 162 vs. DMSO; settings: 3 μM, 6 days
Procedure: (§3) Also profiled were three endogenously mutant cell lines upon modulation of the target by chemical or genetic means in order to evaluate other lysine methylation marks. We used histone acid extracts (as described in Example 1) from HT1080 and SNU1079 cells treated with 3 μM compound 162 or DMSO control for 6 days, as well as SW1353 cells that have been induced (100 ng/mL doxycycline) with IDH2 specific shRNA (shIDH2-891 or shNTC) for 6 days. Histones were further enriched with ActiveMotif® Histone purification mini kit (ActiveMotif Inc., Carlsbad, Calif.)
(§4) The purified histones were desalted by off line reversed phase chromatography on an 1200 Agilent tower (Agilent, Santa Clara, Calif.) using a Jupiter® 5 μm C4 300 Å Column 150×2 mm (Phenomenex, Torrance, Calif.). The resulting peak area was used to estimate concentration against the peak area of histones of known concentration. The desalted histones were lyophilyzed prior to lysine derivatization. […]
(§5) The data obtained via mass spectrometry was interpreted using Mascot Distiller® (Matrix Science, Boston, Mass.) for identification followed by manual verification. The peak area obtained from the data acquired was processed using Skyline Software® (v1.4.0.422 University of Washington, Seattle, Wash.) for quantitation of the peptides bearing post translational modifications.

[3] = tested on: IDH1-R132C mutant HT1080 sarcoma cells; test: H3K9me2 immunohistochemistry with quantitative image analysis; settings: 5 μM, 6 days
Procedure: In order to determine if changes in H3K9me2 level could be detected via immunohistochemistry, HT1080 cell lines were plated onto […] tissue culture flasks (Corning, Cat #3001, Tewksbury, Mass.). The cells were treated with DMSO or 5 μM compound 162 and incubated for 6 days, with media change at day 3. HT1080 cell pellets were harvested by removing media, washing with 1×PBS, and adding 10 ml of 10% neutral buffer formalin. Cells were then scraped from the bottom of the flask and placed in a 50 ml conical tube, filled to ˜50 ml with 10% neutral buffered formalin, and allowed to fix for 1-2 hours. […]
FFPE slides were cut at 3.5 μm thickness, mounted on charged slides (Thermo-Scientific Colormark® Plus Cat #CM-5951, West Palm Beach, Fla.) and baked at 60° C. for 1 hour. […] The secondary antibody, Ventana OmniMap® HRP-conjugated anti-mouse (Ventana Cat #760-4310 Tucson, Ariz.), was incubated for 4 minutes and detected with Ventana's ChromoMap® DAB detection kit (Ventana Cat #760-159, Tucson, Ariz.). […]
Coverslipped slides were scanned with Aperio ScanScope ® XT (Vista, Calif.) for quantitative digital image analysis. Digital images were analyzed with Visiopharm® (Hoersholm, Denmark) image analysis software. The nuclear detection algorithm detected both hematoxylin and DAB-stained nuclei in the image. […]

[4] = tested on: HCT116 cells (wild type for IDH1 and IDH2); test: H3K9me2 Western blot in IDH1 and IDH2 wild type cell line; settings: increasing concentrations, 3-6 days
Procedure: In order to examine the role of H3K9me2 levels as marker, cells that were wild type for IDH1 and IDH2, for example HCT116 cells, were treated with a compound that inhibits IDH1 mutant activity (compound 162). HCT116 colon cells cancer cells (ATCC CCL-247) were cultured in McCoy's 5A (Life Technologies, Carlsbad, Calif.) supplemented with 10% fetal bovine serum (Hyclone, Logan Utah). These cells were treated for 3-6 days with increasing concentrations of compound 162 or DMSO vehicle as control.
Histone extracts were prepared with NuPAGE® 4×LDS Sample Buffer (Life Technologies, Carlsbad, Calif.) and heated to 70° C. for 10 minutes. Samples were run on NuPage® Novex 4-12% Bis-Tris gel (Life Technologies, Carlsbad, Calif.) using MES buffer (Life Technologies, Carlsbad, Calif.). The gel was then transferred onto nitrocellulose membrane using the iBlot system (Life Technologies, Carlsbad Calif.) on setting P3 for 7 minutes. The antibodies used are shown above in Table 1.

[5] = tested on: SW1353 chondrosarcoma cells (IDH2-R172S/WT); test: H3K9me2 Western blot in IDH2 mutant SW1353 cells upon IDH2 knockdown; settings: SW1353 stable lines, doxycycline 100 ng/mL, 6 days
Procedure: SW1353 chondrosarcoma cells (ATCC HTB-94) contain an activating mutation in IDH2 (IDH2-R172S/WT). These cells were cultured in RPM-1640 (Life Technologies, Carlsbad, Calif.) supplemented with 1% sodium pyruvate and 10% Tet-Free fetal bovine serum. IDH2 shRNAs were cloned into pLKO-Tet-ON-puromycin vectors. All shRNAs were validated to give sufficient knockdown of target as judged by RNA, protein, and reduced 2-HG production.
Lentiviral particles were produced by co-transfecting the shRNA plasmid of interest with packaging plasmids Δ8.9 and VSVG into 293T cells using Transit293® transfection reagent (Mirus, Madison, Wis.). Lentiviral supernatants were then used to spin-infect HT-1080 cells in the presence of 8 μg/mL polybrene. Cells recovered overnight in fresh medium and were then selected and continually cultured in appropriate antibiotics.
SW1353 stable lines were cultured with and without doxycycline (100 ng/mL final concentration) for 6 days in the absence of selection. At day 6, cells were lifted using trypsin and histones were extracted as previously described.
Histone extracts were prepared with NuPAGE® 4×LDS Sample Buffer (Life Technologies, Carlsbad, Calif.) and heated to 70° C. for 10 minutes. Samples were run on NuPage® Novex 4-12% Bis-Tris gel (Life Technologies, Carlsbad, Calif.) using MES buffer (Life Technologies, Carlsbad, Calif.). […]

SW1353 cells = test: Histone profiling by LC-MS/MS, IDH2 shRNA vs. non-targeting control shRNA; settings: doxycycline 100 ng/mL, 6 days, vs. shNTC
Procedure: as §3, §4, §5

HCT116 IDH1/2 WT cells = test: H3K9me2 Western blot after exogenous 2-HG treatment; settings: 10 mM 2-HG or 1 mM Cell-Permeable 2-HG for about 30 days
Procedure: In order to evaluate the effect of IDH1 mutations, IDH2 mutations and 2-HG on H3K9me2, HCT116 colorectal cells that were engineered to endogenously express various clinically relevant mutations in IDH1 or IDH2 (Horizon Discovery, Cambridge, UK) were assayed for changes in H3K9me2 levels. […] HCT116 IDH1/2 WT cells were also exogenously treated with 10 mM 2-HG or 1 mM Cell-Permeable 2-HG for about 30 days. All cells were grown in McCoy's 5A Media (Life Technologies, Carlsbad, Calif.) containing 10% Fetal Bovine Serum (Hyclone, Logan, Utah). At least 10^6 cells per line were harvested and subject to a Histone Acid Extraction® Protocol (Abcam, Cambridge, Mass.). Cells in culture were rinsed with PBS and detached using 0.25% trypsin. Trypsin was deactivated using fresh media and the sample was spun down at 1000 rpm for 5 minutes. Media was aspirated and samples were kept at −80° C. until ready for processing.
Cells were washed twice in ice-cold PBS supplemented with 5 mM sodium butyrate (Sigma-Aldrich, St. Louis Mo.). Cells were then resuspended in Triton Extraction Buffer (TEB: PBS containing 0.5% TritonX 100(v/v), 2 mM phenylmethylsulfonyl fluoride (PMSF), 0.02% (w/v) sodium azide) also supplemented with 5 mM sodium butyrate at density of 10^7 cells per mL. […] Histone extracts were subsequently quantified using a detergent compatible (“DC”) protein assay kit (BioRad, Hercules, Calif.). […]

## CC(C)[C@H]1COC(=O)N1c1ccnc(N[C@@H](C)c2ccc(Oc3ccccc3)cc2)n1 [compound 162, (S)-4-isopropyl-3-(2-(((S)-1-(4 phenoxyphenyl)ethyl)amino)pyrimidin-4-yl)oxazolidin-2-one]
[1]
  H3K9me2 level (Western blot, FIG. 5 right panel): the reduction of H3K9me2 level is attenuated
[2]
  H3K9me2 level (Western blot, FIG. 5 left panel): able to reduce the H3K9me2 level in a dose-dependent manner
HT1080 and SNU1079 cells
  H3K9me0 level, change from control (mass spectrometry, FIG. 7): H3K9me0 level increases
  H3K9me2 level, change from control (mass spectrometry, FIG. 7): H3K9me2 level reduction
[3]
  H3K9me2 levels by immunohistochemistry (FIG. 6A): decreases levels H3K9me2
[3]; entire cross section, vs DMSO
  decrease in H3K9me2 levels, quantitative image analysis (FIG. 6B): 27%
[4]
  H3K9me2 levels (Western blot, FIG. 4): does not affect H3K9me2 levels

## shIDH2-309: IDH2 specific shRNA, 5′ GTGGACATCCAGCTAAAGTAT 3′ (SEQ ID NO: 9)
[5]
  H3K9me2 methylation level (Western blot, FIG. 3): H3K9me2 methylation level is reduced

## shIDH2-891: IDH2 specific shRNA, 5′ ATCTTTGACAAGCACTATAAG 3′ (SEQ ID NO: 10)
SW1353 cells
  H3K9me0 level, change from control (mass spectrometry, FIG. 7): H3K9me0 level increases
  H3K9me2 level, change from control (mass spectrometry, FIG. 7): H3K9me2 level reduction
[5]
  H3K9me2 methylation level (Western blot, FIG. 3): H3K9me2 methylation level is reduced

## O=C(O)CCC(O)C(=O)O (stereo not drawn) [2-HG, 2-hydroxyglutarate]
HCT116 IDH1/2 WT cells
  H3K9me2 levels (Western blot, FIG. 1B): sufficient to increase H3K9me2 levels
